Peptide text beside a SMILES is read from it.
System: mTOR, Raptor, RagA, p14
Assay: APEX2 proximity biotinylation with streptavidin enrichment and immunoblotting in HEK293T cells
Assay type: cell-based
Details: for mTOR, Raptor and RagA found in the proximity of the galectin: APEX2-galectin fusions
Experimental: (A) Analysis of the puncta formation of galectins in response to GPN. HeLa cells overexpressing YFP-fused with the indicated galectins were treated with 100 μM GPN or without (Ctrl) in full medium for 1 h and galectin puncta were quantified by HC. […] White masks, algorithm defined cell boundaries (primary objects); green masks, computer-identified galectins puncta (target objects). Data, means±SEM, n≥3 independent experiments (500 primary objects counted per well; ≥5 wells/sample per each experiment); *p<0.05, **p<0.01, † p≥0.05, ANOVA. (B) Immunoprecipitation analysis of the interactions between galectins and mTOR or RagA GTPase. HEK293T cells overexpressing FLAG-tagged galectins were subjected to anti-FLAG immunoprecipitation followed by immunoblotting for endogenous mTOR or RagA. (C) Immunoprecipitation analysis of interactions between Gal8 and mTOR protein complexes in response to GPN treatment. THP-1 cells not treated or treated with 100 μM GPN in full medium for 1 h were subjected to immunoprecipitation with anti-Gal8 antibody, followed by immunoblotting for endogenous RagA, p14, mTOR or Raptor. (D) Analysis of the proximity of Gal8 to mTOR and other proteins in mTOR complexes in response to GPN. Biotinylated proteins from HEK293T cell expressing APEX2-vector or APEX2-Gal8, after GPN and biotin phenol (BP) treatment were affinity-enriched by binding to streptavidin-beads, and samples were analyzed by immunoblotting analysis for endogenous RagA, p14, mTOR or Raptor. Data, means±SEM, (n=3), **p<0.01, ANOVA. (E) Immunoprecipitation analysis of the interactions between Gal8 and RagA GTPase and its mutants. Lysates of HEK293T cells overexpressing FLAG-Gal8 and HA-tagged RagA proteins (RagAWT, RagAT21L or RagAQ66L) were subjected to anti-FLAG immunoprecipitation, followed by immunoblotting for HA-tagged RagA proteins. (F) Immunoprecipitation analysis of the interactions between Gal8 and RagC GTPase and its mutants. HEK293T cells overexpressing FLAG-Gal8 and HA-tagged RagC proteins (RagCWT, RagCS75L or RagCQ120L) lysates were subjected to anti-FLAG immunoprecipitation, followed by immunoblotting for HA-tagged RagC proteins.
HEK293T cells transfected with pJJiaDEST-APEX2 or pJJiaDEST-APEX2-Gal8 were incubated with 100 μM GPN (Cayman Chemicals) in full medium for 1 h (confluence of cells remained at 70-80%). Cells were next incubated in 500 μM biotin-phenol (AdipoGen) in full medium for the last 30 min of GPN incubation. A 1 min pulse with 1 mM H2O2 at room temperature was stopped with quenching buffer (10 mM sodium ascorbate, 10 mM sodium azide and 5 mM Trolox in Dulbecco's Phosphate Buffered Saline (DPBS)). All samples were washed twice with quenching buffer, and twice with DPBS.
For immunoblotting analysis, cell pellets were lysed with 500 μL ice-cold RIPA lysis buffer (ThermoFisher Scientific) with protease inhibitor cocktail (Roche), 1 mM PMSF (sigma), 10 mM sodium ascorbate, 10 mM sodium azide and 5 mM Trolox, gently pipetted and then the incubated for 30 min. The lysates were clarified by centrifugation at 13,000 rpm for 5 min, followed by measuring protein concentrations using a Pierce BCA Protein Assay kit, with freshly made bovine serum albumin (BSA) solutions as standards. Streptavidin-coated magnetic beads (ThermoFisher Scientific) were washed with RIPA lysis buffer. 3 mg of each sample was mixed with 100 μL of streptavidin beads. […] 15 μL of each sample was separated by SDS-PAGE and analyzed by Western blot using indicated antibodies.

Row | Compound | proximity of Gal8 to Ragulator (LAMTOR2/p14) and RagA (APEX2-Gal8 HEK293T, GPN) | proximity of Gal8 to mTOR and Raptor (APEX2-Gal8 HEK293T, GPN) | mTOR, Raptor and RagA found in the proximity of the galectin
1 | NCC(=O)N[C@@H](Cc1ccccc1)C(=O)Nc1ccc2ccccc2c1 [GPN, glycyl-L-phenylalanine 2-naphththylamide] (HELM PEPTIDE1{G.F.[c1ccc2cc(N[*:1])ccc2c1]}$$$$V2.0) | increased proximity | decreased proximity | 
2 | Gal8: protein of the galectin family encoded by the gene LGALS8; beta-galactoside-binding lectin |  |  | in the proximity
3 | Gal9: beta-galactoside-binding lectin protein of the galectin family |  |  | not in the proximity

— patent US20210069295A1, “GALECTINS CONTROL MTOR IN RESPONSE TO ENDOMEMBRANE DAMAGE AND PROVIDE A MECHANISM AND TARGET FOR THE TREATMENT OF AUTOPHAGY-RELATED DISEASES” (STC. UNM, priority 2017, published 2021)
